This is an account of results in PubChem BioAssay (NCI).

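Tested at 5 concentrations; 48 h exposure; 96-well plates; endpoints linearly interpolated, else capped at highest concentration. GI50 = concentration required for 50% inhibition of growth. At the TGI there is no net growth.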

What all share (test): NCI tumour cell line growth inhibition, 48 h
Test [1] concerns OVCAR-4 ovarian.
Test [2] relates to COLO 205 colon.
In test [3] the test system is OVCAR-8 ovarian.
Test [4] deals with SF-268 CNS.
Test [5] relates to SR leukemia.
Test [6] relates to SF-295 CNS.
Test [7] has as its system HOP-62 NSCLC.
The test system of test [8] is NCI-H460 lung.
In test [9] the test system is HL-60(TB) leukemia.
Test [10] deals with CCRF-CEM leukemia.

Regarding `CC(=O)OC1CCC2(C)C(=CC(C3C=C4CC(OC(C)=O)CCC4(C)C4=C3C3CC5OC6(CCC(C)CO6)C(C)C5C3(C)CC4)C3=C2CCC2(C)C3CC3OC4(CCC(C)CO4)C(C)C32)C1` (stereo unspecified), the TGI in [1] is 28.2 µM; in [2], 36.1 µM; in test [3], 23.1 µM; in [4], 23.5 µM; in [5], 28.3 µM; in test [6], 26.5 µM. This compound displayed a TGI in test [7] of 32.5 µM.
Take `O=[N+]([O-])c1ccccc1C1N2CCCCC2[C@@H]2c3[nH]c4ccccc4c3CCN12` (stereo partly specified): the TGI amounted to 32.3 µM in [1]; 25.8 µM in [2]; 34.7 µM in test [8]; 39.1 µM in test [3]; 27.4 µM in [4]; 16.8 µM in test [9]. Also, the TGI was 30.4 µM in [10], 29.8 µM in [6] and 29.2 µM in [7].
For `Fc1ccccc1C1CC(C(c2ccccc2)c2ccccc2)=Nc2ccccc2S1` (stereo unspecified), the TGI was found to be 32.9 µM in [1]; 27.9 µM in test [2]; 23.2 µM in test [8]; 48.5 µM in test [3]; 26.1 µM in test [4]; 16.6 µM in test [9]. Also, the TGI in test [10] is 5.57 µM; in test [6], 26.5 µM; in test [7], 26.9 µM.
In the case of `COc1ccc2c(c1)CC[C@@H]1C2CC[C@]2(C)C(=O)NC(=O)CC12` (stereo partly specified), the TGI in test [2], in test [8], in test [3], in test [4], in test [9] and in test [10] was above 100 µM in each case. In addition, the TGI in test [6] and in test [7] was above 100 µM throughout.
In the case of `CCc1cccc(C)c1NC(=O)NS(=O)(=O)c1ccc(C)cc1`, the TGI in [1], in test [2], in test [8], in [3], in test [4] and in test [9] was above 100 µM in each case. In addition, the TGI in [10], in [6] and in test [7] was above 100 µM each time.
Consider `Cc1cc(C)nc(NS(=O)(=O)c2ccc(NC(=O)c3cccc4cc5ccccc5nc34)cc2)n1`, for which the TGI is above 100 µM in test [1]; above 100 µM in test [2]; above 100 µM in test [8]; above 100 µM in test [3]; above 100 µM in test [4]; 77.5 µM in [10]. Moreover, the TGI in test [6] and in [7] was above 100 µM throughout.
Consider `Cc1cc(C)c(C(=O)OC(c2ccccc2)C(c2ccccc2)N2CCOCC2)c(C)c1` (stereo unspecified), for which the TGI in test [2], in test [8], in test [4], in test [9], in [10] and in test [6] was above 100 µM each time. In [7], this compound had a TGI above 100 µM.
Regarding `COC(=O)CCC1=C(C)c2cc3[n-]c(cc4nc(cc5[n-]c(cc1n2)c(CCC(=O)OC)c5C)C=C4C)cc3C.[Cd+2]`, the GI50 in [1] was 2.35 µM; in test [2], 2.64 µM; in test [8], 0.868 µM; in test [3] it was 9.95 µM; in test [4] it was 3.14 µM; in [5], 3.16 µM. The GI50 in test [10] was 3.34 µM; in test [6] it was 17.5 µM; in [7], 25.4 µM. For the same compound, the TGI stood at 7.14 µM in test [1]; 6.9 µM in [2]; 3.2 µM in test [8]; 75.4 µM in [3]; 14.9 µM in [4]; 8.91 µM in [5]. For the same compound, the values for the TGI in [10], in test [6] and in [7] were above 56.4 µM, 77 µM and 76.2 µM, respectively.
Take `COc1ccc(O)c2c1C(=O)CCCC2=O`: the TGI in test [1], in test [2], in test [8], in [3], in [4] and in [9] was above 100 µM in each case. Further, the TGI in test [10], in test [6] and in test [7] was above 100 µM in each case.
Turning to `CC1OC(O)C(O)C(O)C1O` (stereo unspecified), the TGI in test [1], in test [2], in [8], in [3], in [4] and in test [6] was above 100 µM throughout. For the same compound, in test [7], the TGI was above 100 µM.
For `CCC1(CN(C)C)CC/C(=C\c2ccc3c(c2)OCO3)C1=O` (stereo unspecified), the TGI in test [1], in test [2], in test [3], in test [4], in test [9] and in test [10] was above 100 µM in each case. For the same compound, the TGI in [6] and in test [7] was above 100 µM each time.
As to `O=C1C2=C(c3ccccc31)C(c1ccccc1Cl)N1C(=O)CSC1=N2` (stereo unspecified), the TGI in [1], in [2], in test [8], in test [3], in test [4] and in test [9] was above 100 µM each time. The TGI in test [10], in [6] and in test [7] was above 100 µM in each case.
Take `C=C(C)C1/C=C(/C(C)C)CC[C@]2(C)O[C@@H]2CC[C@H](C)CC1=O` (stereo partly specified): the GI50 in test [1] was 72.4 µM; in test [2], 54.5 µM; in test [8] it was 50.3 µM; in test [3] it was 58.3 µM; in [4] it was above 100 µM; in [5] it was 19.2 µM. The GI50 in test [10] is 18.5 µM; in [6], 71.4 µM; in [7], 76 µM. The TGI was above 100 µM in test [1]; above 100 µM in [2]; above 100 µM in test [8]; above 100 µM in [3]; above 100 µM in [4]; 58.5 µM in test [5]. In addition, the figures for the TGI in test [10], in test [6] and in [7] were 37.3 µM, above 100 µM and above 100 µM, respectively.
For `COc1ccccc1/C=C\c1cc(OC)c(OC)c(OC)c1`, the TGI in [1] was above 100 µM; in test [2], 16.9 µM; in test [8], above 100 µM; in test [3], above 100 µM; in test [9] it was 20.1 µM; in test [10], above 100 µM. The TGI in [6] and in test [7] was above 100 µM in each case.
In the case of `Cc1ccc(Nc2ccc(Nc3ccc(C)cc3)c3c2C(=O)c2c(O)ccc(O)c2C3=O)cc1`, the TGI in test [1], in [2], in [8], in test [3], in test [4] and in [9] was above 100 µM each time. In addition, the TGI in [10], in test [6] and in test [7] was above 100 µM in each case.
Turning to `O=Cc1coc2ccccc2c1=O`, the TGI was 43.8 µM in test [1]; 30.4 µM in [2]; 50.9 µM in test [8]; 35.3 µM in test [3]; 56.7 µM in test [4]; 42.3 µM in test [9]. Besides, the TGI worked out at 69.7 µM in test [10], 41.2 µM in test [6] and 43.8 µM in test [7].
Regarding `Cc1ccc(NC(=O)C(=O)Cc2nc3ccccc3o2)c(C)c1`, the TGI in [1], in test [2], in test [8], in [3], in test [4] and in test [6] was above 100 µM throughout. For the same compound, the TGI in [7] is above 100 µM.
On to `Cc1ccc(N2C(=O)/C(=C3\Sc4c(nc(C)[nH]c4=O)N3c3ccccc3)SC2=S)cc1`, for which the TGI in test [1], in test [2], in [8], in [3], in test [4] and in [9] was above 100 µM each time. Also, the TGI in test [10] is above 100 µM; in [6], 54.8 µM; in [7], 25.9 µM.
As for `CCCC[C@@H](COC(=O)N(Cc1cccs1)Cc1cccs1)NC(=O)N[C@@H](CC(=O)OC)c1ccc2c(c1)OCO2`, the GI50 in test [1], in test [2], in test [8], in [3], in [4] and in [9] was above 100 µM in each case. In addition, the GI50 in test [10], in test [6] and in test [7] was above 100 µM in each case. Further, the TGI in [1], in test [2], in test [8], in [3], in test [4] and in test [9] was above 100 µM throughout. Also, the TGI in [10], in [6] and in [7] was above 100 µM in each case.
As for `CCNCCNc1cc(-c2ccc(F)cc2)c(C#N)c2nc3ccccc3n12`, the GI50 in test [1] was 3.4 µM; in test [2] it was 2.32 µM; in test [8], 3.36 µM; in test [3] it was 4.52 µM; in test [4], 3.09 µM; in test [9], 2.09 µM. The results for the GI50 in test [10], in test [6] and in [7] were 2.77 µM, 1.8 µM and 18.2 µM, respectively. In addition, the TGI in [1] turned out to be 14.5 µM; in test [2], 5.74 µM; in test [8] it was 10.8 µM; in test [3] it was 15.8 µM; in [4], 12.8 µM; in test [9], 4.36 µM. Moreover, the TGI in [10] was 6.52 µM; in [6], 3.79 µM; in test [7] it was 32.8 µM.
As for `O=C1C(c2ccccc2)=C(c2ccccc2)C(c2ccc(CCCCCCc3ccc(C4=C(c5ccccc5)C(=O)C(c5ccccc5)=C4c4ccccc4)cc3)cc2)=C1c1ccccc1`, the TGI in test [1], in test [2], in test [8], in test [3], in test [4] and in [9] was above 100 µM each time. Also, the TGI in test [10], in test [6] and in [7] was above 100 µM each time.
In the case of `COC1=C(OC)CCC(/C(C#N)=C/c2ccc(OC)c(OC)c2)=C1`, the TGI in test [1], in test [2], in [8], in [3], in test [4] and in test [5] was above 100 µM in each case. Besides, the TGI is above 100 µM in [10], above 100 µM in [6] and 86.9 µM in [7].
As to `N#Cc1nc(-c2ccccc2)oc1S(=O)(=O)N1CCOCC1`, the GI50 in [1] was 2.73 µM; in test [2], 2.23 µM; in [8], 17.3 µM; in [3] it was 3.55 µM; in [4], 13.5 µM; in [9], 2.08 µM. Further, the GI50 in test [10] is 1.73 µM; in test [6], 38.2 µM; in test [7], 34.7 µM. For the same compound, the TGI in test [1] is 9.2 µM; in test [2], 4.91 µM; in [8], 37.2 µM; in [3] it was 16.2 µM; in test [4], 40.4 µM; in [9], 4.79 µM. The results for the TGI in test [10], in test [6] and in test [7] were 14.6 µM, above 100 µM and above 100 µM, respectively.
Consider `Fc1ccc(-c2ncn(C3CCNCC3)c2-c2ccnc(Oc3cccc(F)c3)n2)cc1`, for which the GI50 in [1] is 16.8 µM; in [2] it was 5.09 µM; in test [8] it was 7.46 µM; in [3] it was above 25 µM; in test [4], above 23.3 µM; in test [9] it was above 16.6 µM. Further, the GI50 is 12.4 µM in [6] and above 21.8 µM in test [7]. Moreover, the TGI was above 25 µM in test [1]; 9.67 µM in test [2]; above 21.8 µM in test [8]; above 25 µM in test [3]; above 25 µM in test [4]; above 25 µM in test [9]. Also, the TGI in test [6] and in test [7] was above 25 µM throughout.
